Reference: patent publication US20120295935A1, “MIXED AMINAL PHARMACEUTICAL COMPOSITIONS AND USES THEREOF” (priority 2010, published 2012)

Tests used:
[1] = tested on: eIF2α-p (phosphorylated form of eukaryotic initiation factor 2—subunit α); test: Western analysis of eIF2α-p in response to salubrinal; type: cell-based, mouse; settings: 10 μM or 50 μM, 1 to 5 h and 1 to 2 days
Text: MS3T3 osteoblast-like cells were used to evaluate the level of eIF2α-p (phosphorylated form of eukaryotic initiation factor 2—subunit α) in response to salubrinal.

rat brain = settings: intra-cerebroventricular or intra-peritoneal administration; cited from earlier work
mouse hippocampus = settings: direct injection; cited from earlier work
MC3T3 cells [2] = test: mRNA expression levels by real-time PCR; type: cell-based, mouse
Method: Responses to Administration of Thapsigargin—Upregulation of transcription factors linked to bone formation as well as PERK: The effects of 10 nM thapsigargin on mRNA expression levels of ISR-linked genes (ATF4, ATF3, and CHOP) as well as genes involved in bone remodeling (Runx2, Osterix, and Rank1), were examined (FIG. 5). […] Out of 4 transcription factors (ATF4, ATF3, Runx2, and Osterix), the level of ATF4 mRNA was elevated 2-4 fold throughout the treatments. […] The mRNA level of type 1 collagen was elevated 5 h and 10 h for T1h (1 h exposure at 10 nM).
Responses to Administration of Salubrinal—In vitro responses to salubrinal: In order to evaluate the effects of salubrinal, MC3T3 E1 osteoblast-like cells and MLO-A5 osteocyte cells (Barragan-Adjemian, C., et al., “Mechanism by which MLO-A5 late osteoblasts/early osteocytes mineralize in culture: similarities with mineralization of lamellar bone,” Calcif. Tissue Int. 79:340-353 (2006)) were incubated with salubrinal at 100 nM-50 μM for 1-24 h. The mRNA levels of the selected genes, TF4, ATF3, Osteocalcin (OCN), and CHOP, were determined by real-time PCR. […] In MC3T3 cells, for instance, the Osteocalcin mRNA level, which is regulated by ATF4 and Runx2 (Xiao et al. 2005), was elevated 11.8±0.2 fold at 10 μM salubrinal in 24 h.

MC3T3 cells [3] = test: Mineralization, von-Kossa staining; type: cell-based, mouse; settings: 10 days
Method: To evaluate the effects of salubrinal on mineralization, MC3T3 cells were grown in the presence of 50 μg/ml of ascorbic acid and 5 mM β-glycerophosphate for 10 days with and without 10 or 50 μM salubrinal, and von-Kossa staining was conducted. Cells were fixed in 10% formalin and incubated in 5% silver nitrate for 30 min. After rinsing in PBS, staining was developed in 5% sodium carbonate for 2 min. They were counterstained with 0.1% nuclear fast red solution. […] In the field-of-view with 10× objective lens, the mean number of positive dots was 3.2-fold (10 μM salubrinal) and 2.9-fold (50 μM salubrinal) more than that for control cells without salubrinal treatment (FIG. 9).

[4] = tested on: brainstem motoneurons in mice; settings: hypoxia and reoxygenation events; cited from earlier work
[5] = tested on: rat pheochromocytoma cell line; settings: cited from earlier work
C57/BL/6 female mice = test: Mouse tibia bone formation, ankle loading plus local salubrinal; type: in vivo
Method: Mouse tibia-bone formation: Twenty C57/BL/6 female mice (˜8 weeks, body weight ˜18 g) were employed to examine the combined effects of ankle loading and local administration of salubrinal to the tibia (Zhang P, et al., Salubrinal stimulates anabolic responses in mouse femora, 55th Ann Meeting ORS (2009)). Local administration was targeted into a bone marrow cavity from the proximal tibia. A total volume of 20 μl PBS was injected to the left hindlimb with or without 0.025 mg/kg (100 μM) salubrinal (Calbiochem) using a micro-syringe with a 0.5-inch #26-gauge needle (Worsham D N, et al., In vivo gene transfer into adult stem cells in unconditioned mice by in situ delivery of a lentiviral vector, Mol. Ther. 14:514-24 (2006); Zhu Y, et al., eIF-2a protects brainstem motoneurons in a murine model of sleep apnea, J. Neurosci. 28:2168-78 (2008)). In examination of the combined effects of mechanical loading and salubrinal administration, ankle loading was given for 5 consecutive days after administration of salubrinal on each day. The mouse was placed in an anesthetic induction chamber to cause sedation and then mask-anesthetized using 1.5% isoflurane. With a custom-made piezoelectric mechanical loader, loads were applied to the left ankle for 5 min/day in the lateral-medial direction. The loading frequency was 5 Hz, and the peak-to-peak force was 0.5 N (FIG. 12). The right hindlimb was used as a sham-loaded control (Zhang P, et al., Joint loading-driven bone formation and signaling pathways predicted from genome-wide expression profiles, Bone 44:989-998 (2009)).

female SD rats = test: Rat tibia healing of surgical wounds (micro CT); type: in vivo; settings: for cortical thickness / cortical thickness elevated vs control: tibia
Text: Rat tibia-healing of surgical wounds. Twenty female SD rats (˜8 weeks, body weight ˜180 g) received a surgical hole with ˜2.0 mm in diameter in the left and right tibiae (Zhang P., et al., Knee loading accelerates bone healing in mice, J. Bone Miner. Res. 22:1979-1987 (2007)). The hole was located on the medial surface ˜15 mm distant apart from the proximal end of the tibia (Chiba S., et al., Molecular analysis of defect healing in rat diaphyseal bone, J. Vet. Med. Sci. 63:603-606 (2001)). During the first 5 days, 100 μl of salubrinal solution at dosage of 0.025 mg/kg was injected into the left limb and a PBS solution (vehicle control) in the right limb (Wang J W, et al., Locally applied simvastatin promotes fracture healing in ovariectomized rat, Osteoporosis Int. 18:1641-1650 (2007)). Injection was subcutaneous targeted to the wound site. Rats were sacrificed on days 10 or 20 after surgery, and the axial and transverse length of the holes as well as cortical thickness (1.5 mm proximal and distal to the center of the hole) were determined with micro CT imaging (μCT-20, Scanco Medical AG).

[6] = ankle loading and salubrinal injection
[7] = tibia, 0.025 mg/kg (100 μM) plus ankle loading, 5 days

SMILES: O=C(/C=C/c1ccccc1)NC(NC(=S)Nc1cccc2cccnc12)C(Cl)(Cl)Cl (stereo not drawn) [salubrinal]
- phosphorylated level of eIF2α [1]: Elevated
- excitotoxic neuronal death in vivo (rat brain): decreased
- ATF4-dependent long-term synaptic plasticity and memory (mouse hippocampus): modulated
- Osteocalcin mRNA level (MC3T3 cells [2]; 10 μM in 24 h): 11.8±0.2 fold
- mRNA levels of the selected genes (TF4, ATF3, Osteocalcin, CHOP) (MC3T3 cells [2]; MC3T3 cells, 100 nM-50 μM for 1-24 h): upregulated
- mean number of von-Kossa positive dots vs control cells (MC3T3 cells [3]; 10 μM): 3.2 fold
- mean number of von-Kossa positive dots vs control cells (MC3T3 cells [3]; 50 μM): 2.9 fold
- motoneuronal injury [4]: suppressed
- protection from ER stress-induced apoptosis [5]: protect
- relative increase in BMC vs ankle loading alone (C57/BL/6 female mice; [6]): 1.5 fold
- relative increase in BMD vs ankle loading alone (C57/BL/6 female mice; [6]): 2.3 fold
- BMC (C57/BL/6 female mice; [7]): 0.0154 ± 0.0004 g
- BMD (C57/BL/6 female mice; [7]): 0.0443±0.0011 g/cm^2
- size of the wounds (female SD rats; tibia medial cortex, day 10): 1.614±0.014 mm
- wound size smaller vs control (female SD rats; tibia medial cortex, day 10, 0.025 mg/kg s.c. first 5 days): 12.3%
- size of the wounds (female SD rats; tibia medial cortex, day 20): 1.375±0.033 mm
- wound size decreased vs control (female SD rats; tibia medial cortex, day 20): 19.1%
- cortical thickness (female SD rats; day 10): 0.434±0.006 mm
- cortical thickness elevated vs control (female SD rats; day 10): 11.6%
- cortical thickness (female SD rats; day 20): 0.537±0.005 mm
- cortical thickness elevated vs control (female SD rats; day 20): 20.3%
